Measured values taken from US8629158B2, “Azabicycloalkane-indole and azabicycloalkane-pyrrolo-pyridine MCH-1 antagonists, methods of making, and use thereof” (Albany Molecular Research, Inc., priority 2009, dated 2014).
Structures can show the parent of a compound that is named as a salt. Where two headings read alike, the source gives them in different places.

Biological target: human MCH-1 receptor (Homo sapiens (Human), UniProt Q99705)
Test: Binding Assay for Human Melanin-Concentrating Hormone (MCH-1) Receptor (radioligand displacement, CHO-K1 membranes)
Details: for Ki: membranes from CHO-K1 cells expressing human MCH1 receptor, [3H]-labeled radioligand, Ki from IC50 by Cheng Prusoff
Experimental: Evaluation of the affinity of compounds for the human MCH-1 receptor was accomplished using 4-(3,4,5-tritritiumbenzyloxy)-1-(1-(2-(pyrrolidin-1-yl)ethyl)-1H-indazol-5-yl)pyridin-2(1H)-one and membranes prepared from stable CHO-K1 cells expressing the human MCH1 receptor obtained from Euroscreen (Batch 1138). Cell membrane homogenates (8.92 μg protein) were incubated for 60 min at 25° C. with […] of the [^3H]-labeled compound in the absence or presence of the test compound in 50 mM Tris-HCl buffer, pH 7.4. Nonspecific binding was determined in the presence of 50 μM 1-(5-(4-cyanophenyl)bicyclo[3.1.0]hexan-2-yl)-3-(4-fluoro-3-(trifluoromethyl)phenyl)-1-(3-(4-methylpiperazin-1-yl)propyl)urea. Following incubation, the samples were filtered rapidly under vacuum through Skatron 11731 filters, pre-soaked in 0.5% polyethylenimine, and washed with ice-cold 50 mM Tris-HCl buffer, pH 7.4, (wash setting 9,9,0) using a Skatron cell harvester. The filters were counted for radioactivity in a liquid scintillation counter (Tri-Carb 2100TR, Packard) using a scintillation cocktail (Ultima Gold MV, Perkin Elmer).
The results are expressed as a percent inhibition of the control radioligand specific binding. The IC50 value (concentration causing a half-maximal inhibition of control specific binding) and Hill coefficient (nH) were determined by non-linear regression analysis of the competition curve using Hill equation curve fitting. The inhibition constant (Ki) was calculated from the Cheng Prusoff equation: (Ki=IC50/(1+(L/KD)), where L=concentration of radioligand in the assay, and KD=affinity of the radioligand for the receptor.

Chain of human MCH-1 receptor (Q99705 whole entry): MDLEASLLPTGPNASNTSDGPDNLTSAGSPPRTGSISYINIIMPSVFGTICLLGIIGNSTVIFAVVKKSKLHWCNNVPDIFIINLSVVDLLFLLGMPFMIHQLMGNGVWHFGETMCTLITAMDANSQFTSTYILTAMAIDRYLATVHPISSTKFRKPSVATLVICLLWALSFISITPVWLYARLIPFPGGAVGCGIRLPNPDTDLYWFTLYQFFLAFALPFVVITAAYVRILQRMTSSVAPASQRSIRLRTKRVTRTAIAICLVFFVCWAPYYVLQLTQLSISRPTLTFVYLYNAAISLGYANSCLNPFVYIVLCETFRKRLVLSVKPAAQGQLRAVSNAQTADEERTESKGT

Row | Compound | Ki (read-out: MCH-1 Ki) [nM] | other results
1 | Cn1c2c(c3ccc(N4CCN(CCc5ccc(Cl)cc5)CC4=O)nc31)C1CCC(C2)N1 (stereo not shown) [Example 46, 4-(4-Chlorophenethyl)-1-(10-methyl-5,6,7,8,9,10-hexahydro-5,8-iminocyclohepta[4,5]pyrrolo[2,3-b]pyridin-2-yl)-piperazin-2-one dihydrochloride] | 99 | 
2 | Cn1c2c(c3ccc(N4CCN(CCc5ccccc5)CC4=O)cc31)C1CCC(C2)N1 (single isomer, unassigned; enantiomer a) [Example 34, 1-(5-Methyl-5,6,7,8,9,10-hexahydro-7,10-iminocyclohept[b]indol-3-yl)-4-phenethylpiperazin-2-one dihydrochloride (Enantiomer A)] |  | inhibition at 1 µM (@ 1 uM test compound, read-out: MCH-1 percent inhibition of control radioligand specific binding): 68%
3 | Cn1c2c(c3ccc(-n4ccc(-c5ccc(C(F)(F)F)nc5)cc4=O)cc31)C1CCC(C2)N1 (single isomer, unassigned; enantiomer b) [Example 36, 1-(5-Methyl-5,6,7,8,9,10-hexahydro-7,10-iminocyclohept[b]indol-3-yl)-4-(6-(trifluoromethyl)pyridin-3-yl)pyridin-2(1H)-one hydrochloride (Enantiomer B)] |  | Ki (MCH-1 Ki (nM)): 5.3 nM
4 | Cn1c2c(c3ccc(-n4ccc(OCc5ccc(Cl)cc5Cl)cc4=O)nc31)C1CCC(C2)N1 (stereo not shown) [Example 48, 4-(2,4-Dichlorobenzyloxy)-1-(10-methyl-5,6,7,8,9,10-hexahydro-5,8-iminocyclohepta[4,5]pyrrolo[2,3-b]pyridin-2-yl)pyridin-2(1H)-one hydrochloride] | 28 | 
5 | Cn1c2c(c3ccc(-n4ccc(OCc5ccc(Cl)cc5F)cc4=O)nc31)C1CCC(C2)N1 (stereo not shown) [Example 47, 4-(4-Chloro-2-fluorobenzyloxy)-1-(10-methyl-5,6,7,8,9,10-hexahydro-5,8-iminocyclohepta[4,5]pyrrolo[2,3-b]pyridin-2-yl)pyridin-2(1H)-one hydrochloride] | 14 | 
6 | Cn1c2c(c3ccc(-n4ccc(OCc5ccccc5)cc4=O)cc31)C1CCC(C2)N1 (stereo not shown) [Example 2, 4-(Benzyloxy)-1-(5-methyl-5,6,7,8,9,10-hexahydro-7,10-iminocyclohept[b]indol-3-yl)pyridin-2(1H)-one hydrochloride] | 10.5 | 
7 | Cn1c2c(c3ccc(-n4ccc(OCc5ccc(F)cn5)cc4=O)cc31)C1CCCC(C2)N1 (stereo not shown) [Example 11, 4-((5-Fluoropyridin-2-yl)methoxy)-1-(5-methyl-6,7,8,9,10,11-hexahydro-7,11-imino-5H-cyclooct[b]indol-3-yl)pyridin-2(1H)-one dihydrochloride] | 21.3 | 
8 | Cn1c2c(c3ccc(-n4ccc(OCc5ccccc5)cc4=O)cc31)C1CCCC(C2)N1 (stereo not shown) [Example 12, 4-(Benzyloxy)-1-(5-methyl-6,7,8,9,10,11-hexahydro-7,11-imino-5H-cyclooct[b]indol-3-yl)pyridin-2(1H)-one hydrochloride] | 9.3 | 
9 | Cn1c2c(c3ccc(-n4ccc(OCc5ccc(C(F)(F)F)nc5)cc4=O)cc31)C1CCC(C2)N1 (single isomer, unassigned; enantiomer b) [Example 38, 1-(5-Methyl-5,6,7,8,9,10-hexahydro-7,10-iminocyclohept[b]indol-3-yl)-4-((6-(trifluoromethyl)pyridin-3-yl)methoxy)pyridin-2(1H)-one hydrochloride (Enantiomer B)] |  | Ki (MCH-1 Ki (nM)): 12 nM
10 | Cn1c2c(c3ccc(-n4ccc(OCc5ccc(F)cn5)cc4=O)cc31)C1CCC(C2)N1 (stereo not shown) [Example 6, 4-((5-Fluoropyridin-2-yl)methoxy)-1-(5-methyl-5,6,7,8,9,10-hexahydro-7,10-iminocyclohept[b]indol-3-yl)pyridin-2(1H)-one dihydrochloride] | 13.5 | 
11 | Cn1c2c(c3ccc(-n4ncc(OCc5ccc(F)cn5)cc4=O)cc31)C1CCCC(C2)N1 (stereo not shown) [Example 17, 5-((5-Fluoropyridin-2-yl)methoxy)-2-(5-methyl-6,7,8,9,10,11-hexahydro-7,11-imino-5H-cyclooct[b]indol-3-yl)pyridazin-3(2H)-one hydrochloride] | 28 | 
12 | Cc1ccc(-c2ccn(-c3ccc4c5c(n(C)c4c3)CC3CCC5N3)c(=O)c2)cn1 (single isomer, unassigned; enantiomer b) [Example 35, 1-(5-Methyl-5,6,7,8,9,10-hexahydro-7,10-iminocyclohept[b]indol-3-yl)-4-(6-methylpyridin-3-yl)-pyridin-2(1H)-one hydrochloride (Enantiomer B)] | 59 | 
13 | CCN1C2CCCC1c1c(n(C)c3cc(-n4ccc(OCc5ccccc5)cc4=O)ccc13)C2 (stereo not shown) [Example 32, 4-(Benzyloxy)-1-(12-ethyl-5-methyl-6,7,8,9,10,11-hexahydro-7,11-imino-5H-cyclooct[b]indol-3-yl)pyridin-2(1H)-one hydrochloride] | 15 | 
14 | Cn1c2c(c3ccc(-n4ccc(OCc5ccc(F)cc5F)cc4=O)nc31)C1CCC(C2)N1 (stereo not shown) [Example 45, 4-(2,4-Difluorobenzyloxy)-1-(10-methyl-5,6,7,8,9,10-hexahydro-5,8-iminocyclohepta[4,5]pyrrolo[2,3-b]pyridin-2-yl)pyridin-2(1H)-one hydrochloride] | 26 | 
15 | O=c1cc(OCc2ccc(F)cn2)ccn1-c1ccc2c3c([nH]c2c1)CC1CCC3N1 (stereo not shown) [Example 9, 4-((5-Fluoropyridin-2-yl)methoxy)-1-(5,6,7,8,9,10-hexahydro-7,10-iminocyclohept[b]indol-3-yl)pyridin-2(1H)-one dihydrochloride] | 25.3 | 
16 | Cn1c2c(c3ccc(-n4ccc(-c5ccc(C(F)(F)F)cc5)cc4=O)nc31)C1CCC(C2)N1 (stereo not shown) [Example 50, 1-(10-Methyl-5,6,7,8,9,10-hexahydro-5,8-iminocyclohepta[4,5]pyrrolo[2,3-b]pyridin-2-yl)-4-(4-(trifluoromethyl)phenyl)pyridin-2(1H)-one hydrochloride] | 19 | 
17 | CN1C2CCC1c1c(n(C)c3nc(-n4ccc(OCc5ccccc5)cc4=O)ccc13)C2 (stereo not shown) [Example 42, 4-(Benzyloxy)-1-(10,11-dimethyl-5,6,7,8,9,10-hexahydro-5,8-iminocyclohepta[4,5]pyrrolo[2,3-b]pyridin-2-yl)pyridin-2(1H)-one hydrochloride] | 27 | 
18 | Cn1c2c(c3ccc(-n4ccc(-c5ccc(C(F)(F)F)nc5)cc4=O)nc31)C1CCC(C2)N1 (stereo not shown) [Example 44, 1-(10-Methyl-5,6,7,8,9,10-hexahydro-5,8-iminocyclohepta[4,5]pyrrolo[2,3-b]pyridin-2-yl)-4-(6-(trifluoromethyl)pyridin-3-yl)pyridin-2(1H)-one hydrochloride] | 110 | 
19 | Cn1c2c(c3ccc(-n4ccc(-c5ccc(C(F)(F)F)nc5)cc4=O)cc31)C1CCC(C2)N1 (stereo not shown) [Example 5, 1-(5-Methyl-5,6,7,8,9,10-hexahydro-7,10-iminocyclohept[b]indol-3-yl)-4-(6-(trifluoromethyl)pyridin-3-yl)pyridin-2(1H)-one dihydrochloride] | 6.5 | 
20 | Cn1c2c(c3ccc(-n4ccc(OCc5ccccc5)cc4=O)cc31)C1CCC(C2)N1 (single isomer, unassigned; enantiomer b) [Example 15, 4-(Benzyloxy)-1-(5-methyl-5,6,7,8,9,10-hexahydro-7,10-iminocyclohept[b]indol-3-yl)pyridin-2(1H)-one hydrochloride (Enantiomer B)] |  | Ki (MCH-1 Ki (nM)): 7.8 nM
21 | CC(=O)N1C2CCC1c1c(n(C)c3cc(-n4ccc(OCc5ccc(F)cn5)cc4=O)ccc13)C2 (single isomer, unassigned; enantiomer a) [Example 29, 1-(11-Acetyl-5-methyl-5,6,7,8,9,10-hexahydro-7,10-iminocyclohept[b]indol-3-yl)-4-((5-Fluoropyridin-2-yl)methoxy)pyridin-2(1H)-one (Enantiomer A)] |  | Ki (MCH-1 Ki (nM)): 75 nM
22 | CC(=O)N1C2CCC1c1c([nH]c3cc(-n4ccc(OCc5ccccc5)cc4=O)ccc13)C2 (single isomer, unassigned; enantiomer a) [Example 30, 1-(11-Acetyl-5,6,7,8,9,10-hexahydro-7,10-iminocyclohept[b]indol-3-yl)-4-(benzyloxy)pyridin-2(1H)-one hydrochloride (Enantiomer A)] |  | Ki (MCH-1 Ki (nM)): 97 nM
23 | Cn1c2c(c3ccc(-n4ccc(OCc5ccccc5)cc4=O)nc31)C1CCC(C2)N1 (stereo not shown) [Example 39, 4-(Benzyloxy)-1-(10-methyl-5,6,7,8,9,10-hexahydro-5,8-iminocyclohepta[4,5]pyrrolo[2,3-b]pyridin-2-yl)pyridin-2(1H)-one hydrochloride] | 21 | 
24 | Cn1c2c(c3ccc(-n4ccc(-c5cnc(C(F)(F)F)nc5)cc4=O)cc31)C1CCC(C2)N1 (stereo not shown) [Example 7, 1-(5-Methyl-5,6,7,8,9,10-hexahydro-7,10-iminocyclohept[b]indol-3-yl)-4-(2-(trifluoromethyl)pyrimidin-5-yl)pyridin-2(1H)-one hydrochloride] | 68.1 | 
25 | Cn1c2c(c3ccc(N4CCN(CCc5ccccc5)CC4=O)cc31)C1CCC(C2)N1 (single isomer, unassigned; enantiomer b) [Example 33, 1-(5-Methyl-5,6,7,8,9,10-hexahydro-7,10-iminocyclohept[b]indol-3-yl)-4-phenethylpiperazin-2-one dihydrochloride (Enantiomer B)] |  | Ki (MCH-1 Ki (nM)): 17 nM
